Results as given in US20080182899A1, “ASSOCIATION OF BETA3 RECEPTOR AGONIST AND MONOAMINE REUPTAKE INHIBITORS, PHARMACEUTICAL COMPOSITION AND THERAPEUTIC USE THEREOF” (SANOFI-AVENTIS, priority 2005, published 2008).

System: mice stressed by MCS
Assay: forced swimming test after moderate chronic stress (MCS) protocol
Assay type: in vivo, mice (male BALB/c ByJIco)
Settings: β3 agonist 1 mg/kg; for Percentage of time (immobile time of stressed animals relative to the unstressed animals): forced swimming test on day 50, 1 intraperitoneal injection per day from day 15 to day 50, fluoxetine hydrochloride 3 mg/kg; for Immobile time: forced swimming test on day 50, measured over 5 minutes, 1 intraperitoneal injection per day from day 15 to day 50, fluoxetine hydrochloride 3 mg/kg; for effect of repeated administration on immobile time (in words): forced swimming test on day 50, repeated intraperitoneal administration day 15 to day 50, fluoxetine 3 mg/kg
Experimental: The antidepressant effects of the combination according to the invention were evaluated in mice using the moderate chronic stress (MCS) protocol. This test was developed on rats by Willner (P. Willner, Neuroscience and Biobehavioral Review, 1992, 16, 525-34) and adapted to mice by Kopp et al. (C. Kopp, Behavioral Pharmacology, 1999, 10, 73-83).
Similarities between the depressive state in man and the effect of moderate chronic stress in mice were established. The emotivity of mice stressed by MCS was evaluated in the forced swimming test.
The MCS is performed in the following manner:
Male BALB/c ByJIco mice (Iffa Credo Lyons, France) 8 weeks old are placed in individual experiment cages (26×20×14 cm), provided with food and water ad libitum, at a controlled temperature of 22±1° C.
In the context of the protocol, the mice are subjected to a series of stresses such as forced bathing, food and/or water deprivation, housing in cages containing wet sawdust, permutation of the day/night cycle, maintenance under constant illumination or in darkness, each of these restrictions possibly lasting from 2 hours to 24 hours.
A first group of control animals is not subjected to the MCS (group 1—unstressed).
The animals subjected to the MCS are divided into 4 groups on day 15: • Group 2 (saline stress) consists of control animals receiving one intraperitoneal injection per day of physiological fluid. • Group 3 (fluoxetine stress) receives 1 intraperitoneal injection per day of fluoxetine hydrochloride at a rate of 3 mg/kg. • Group 4 (β3 agonist stress) receives 1 intraperitoneal injection per day of ethyl [(7S)-7(2R)-2-(3-chlorophenyl)-2-hydroxyethylamino-5,6,7,8-tetrahydronaphthalen-2-yloxy]acetate hydrochloride at a rate of 1 mg/kg. • Group 5 (fluoxetine+β3 agonist stress) receives 1 intraperitoneal injection per day of a solution containing fluoxetine hydrochloride (3 mg/kg) and ethyl [(7S)-7(2R)-2-(3-chlorophenyl)-2-hydroxyethylamino-5,6,7,8-tetrahydro-naphthalen-2-yloxy]acetate hydrochloride (1 mg/kg).
The injections are performed from day 15 to day 50.
On day 50, each group is subjected to the forced swimming test. […] The immobile time is measured over a period of 5 minutes.

SMILES	Percentage of time (immobile time of stressed animals relative to the unstressed animals)	Immobile time [s]	effect of repeated administration on immobile time (in words)
CNCCC(Oc1ccc(C(F)(F)F)cc1)c1ccccc1 (stereo not drawn) [fluoxetine]	+21.5%	178.4	does not significantly modify this parameter
CCOC(=O)COc1ccc2c(c1)C[C@@H](NC[C@H](O)c1cccc(Cl)c1)CC2.Cl [β3 agonist, ethyl [(7S)-7(2R)-2-(3-chlorophenyl)-2-hydroxyethylamino-5,6,7,8-tetrahydronaphthalen-2-yloxy]acetate hydrochloride]	+25.1%	182.0	does not significantly modify this parameter
